Reference: US20200214296A1, “MICROBICIDAL COMPOSITION” (DDP Specialty Electronic Materials US, Inc., priority 2017, published 2020)

Columns and labels:
[1] = tested on: Pseudomonas aeruginosa biofilm; assay: Biofilm dissipation synergy on MBEC plate pegs; format: cell-based; details: P. aeruginosa biofilm, 24 hour contact time, 5 day regrowth; pass = total eradication of the biofilm
Protocol: One measure of synergism is the industrially accepted method described by Kull, […]. and Mayer, R. L., in Applied Microbiology 9:538-541 (1961), using the ratio determined by the formula: Qa/QA+Qb/QB=Synergy Index (“SI”) […] A Pseudomonas aeruginosa culture was prepared from glycerol stocks. First, the culture was streak plated. Single colonies were selected and shake flasks were inoculated and left overnight at 37° C. (TSB medium). The culture was diluted in phosphate buffer pH 7.3 1:1000000 prior to set up the biofilm plate Biofilm was developed overnight on P&G MBEC plates. The 96 well plates were covered with the lid holding the pegs partially submerged in the growth media. Biofilm was developed on the pegs leading to a total cell amount of 7*10^10 cells per peg. The top plates (with the pegs) were then subsequently washed and then placed into a 96 well challenge plate with the biocidal components in the given amounts. […] The contact time of the biofilms with the microbicidal mix was 24 hours. After the challenging, the biofilms were gently washed, sonicated from the pegs into recovery media (TSB 30 g/l, with resazurin, 0.01%), from these wells directly after sonication 10× dilution series were made on separate plates. These were left to recover for 3 to 5 days at 30° C. […] It could then be back-calculated how many cells remained after challenging of the biofilm with biocides. […]

Thermus thermophilus = assay: Synergy in the planktonic phase, biocide challenge with resazurin regrowth readout; format: cell-based, Thermus thermophilus (DSM: 579)
Protocol: The inoculum prepared added between to 1*10^8 to 1*10^9 total cells/ml (in each well). At several timepoints 20 microliter aliquots of each treatment (well) were added to 96 well plates with TSB+Resazurin. These 96 well plates were filled with 'recovery' media (TSB 30 grams/liter). One of such plates was prepared for each column of the assay block. 180 μl recovery media was added to each well of a 96 well plate, except for column 1 of the recovery plate. This column was filled with 180 μl of one column of the assay block. The last three columns on the recovery plate were not pipetted. These columns represented the no template control for verifying proper plate set up and data reliability. […] The recovery plates were subsequently read (checked for microbial growth) at 24 and 48 hours after addition of the culture. Plate reading took place twice for each time point, to look at potential changes. Reading took place utilizing separate 96 wells plates pre filled with fresh media. […] This was done in triplicate for each point (the triplicate is already present in the biocide block viz. each point is truly determined in triplicate). […] Ranking was done per average value of three data points determined per experiment. (Recorded in log regrowth). […]

[2] = tested on: Pseudomonas aeruginosa & E. coli mix; assay: as above; format: cell-based, Pseudomonas aeruginosa (DSM: 50071) and E. coli (DSM: 1576); details: P. aeruginosa/E. coli, after 48 hours, phosphate buffer pH 7.3, used alone
Protocol: Pseudomonas aeruginosa (DSM: 50071) and E. coli (DSM: 1576) cultures were separately prepared from glycerol stocks; first they were streak plated and validated with a microscope. Single colonies were picked and shake flasks were inoculated and left overnight at 37° C. (TSB medium) to produce the initial inoculum. The challenge block (a 96 wells plate) was prepared using phosphate buffer at pH 7.3, (0.0027M potassium chloride, 0.137 M sodium chloride). The Biocide challenging was done at 30° C. Inoculation took place at the start of the experiments and after 48 hours a re-inoculation was done. Challenging was monitored up to 7 days in total. In Table 1, the concentrations used for the synergy experiments are listed. Each experiment was done in triplicate. […] The recovery plates were subsequently read (checked for microbial growth) at 24 and 48 hours after addition of the culture. Plate reading took place twice for each time point, to look at potential changes. Reading took place utilizing separate 96 wells plates pre filled with fresh media. […] This was done in triplicate for each point (the triplicate is already present in the biocide block viz. each point is truly determined in triplicate). […] Ranking was done per average value of three data points determined per experiment. (Recorded in log regrowth). […]

O=CC=O [Glyoxal, glyoxal]
Glyoxal (standalone pass) [1]: 1280 ppm
Glyoxal standalone 48 h pass (Thermus thermophilus; T. thermophilus, planktonic, after 48 hours, 60° C., standard ocean matrix salinity 2%, used alone): 40 ppm
Sensitivity of Thermus thermophilus vs. Pseudomonas aeruginosa and E. coli (Thermus thermophilus; comparison in words, footnote of Table 2): more sensitive
Glyoxal standalone 48 h pass [2]: ≥2000 ppm
